In ChEMBL document CHEMBL1201862, “PubChem BioAssay data set” (2004):
The source made the active and inactive calls.

Tests used:
[1] = inhibitors of intracellular T. cruzi replication, confirmation, NIH3T3 host cells, beta-gal luminescence (AID 2044); assay type: functional, cell-based;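 note: intracellular parasites grown in NIH/3T3 mouse fibroblasts as host cells; luminescent beta-galactosidase reporter signal from transgenic T. cruzi replicating inside host cells; inhibitors lower the luminescence signal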
[2] = cytotoxicity toward NIH3T3 fibroblasts, dose response, counter-screen, cell-based, ATP luminescence, mouse fibroblasts (AID 2010); assay type: functional;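 note: cells exposed to compound for about 90 hours before reading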
Cytochrome P450 2C19 = Cytochrome P450 2C19 (Homo sapiens, UniProt P33261); experiment: Cytochrome panel assay with activity outcomes. Panel member name: p450-cyp2c19 Compounds with AC50 equal or less than 10 uM are considered active; assay type: functional
Cytochrome P450 2C19, sequence (P33261 whole entry): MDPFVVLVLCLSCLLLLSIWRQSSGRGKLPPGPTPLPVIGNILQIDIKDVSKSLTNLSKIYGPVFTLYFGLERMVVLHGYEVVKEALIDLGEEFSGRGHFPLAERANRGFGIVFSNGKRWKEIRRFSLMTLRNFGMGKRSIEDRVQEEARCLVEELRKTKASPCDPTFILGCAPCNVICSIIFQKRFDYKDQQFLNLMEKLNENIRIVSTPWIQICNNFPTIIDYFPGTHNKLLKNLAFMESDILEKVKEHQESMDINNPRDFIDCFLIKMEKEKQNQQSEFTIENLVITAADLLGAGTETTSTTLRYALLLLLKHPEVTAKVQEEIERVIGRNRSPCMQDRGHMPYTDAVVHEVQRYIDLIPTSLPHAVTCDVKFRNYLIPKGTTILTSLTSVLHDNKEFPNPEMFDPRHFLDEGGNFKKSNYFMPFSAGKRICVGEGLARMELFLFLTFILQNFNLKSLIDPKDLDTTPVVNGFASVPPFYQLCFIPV

[3] = molecular target: T1, Rac GTPase-activating protein 1 (Homo sapiens, UniProt Q9H0H5); experiment: MgcRacGAP GTPase-activating activity inhibitors, confirmation, biochemical, ADP Hunter fluorescence, primary and confirmatory (AID 624330); assay type: functional
T1 sequence (Q9H0H5 whole entry): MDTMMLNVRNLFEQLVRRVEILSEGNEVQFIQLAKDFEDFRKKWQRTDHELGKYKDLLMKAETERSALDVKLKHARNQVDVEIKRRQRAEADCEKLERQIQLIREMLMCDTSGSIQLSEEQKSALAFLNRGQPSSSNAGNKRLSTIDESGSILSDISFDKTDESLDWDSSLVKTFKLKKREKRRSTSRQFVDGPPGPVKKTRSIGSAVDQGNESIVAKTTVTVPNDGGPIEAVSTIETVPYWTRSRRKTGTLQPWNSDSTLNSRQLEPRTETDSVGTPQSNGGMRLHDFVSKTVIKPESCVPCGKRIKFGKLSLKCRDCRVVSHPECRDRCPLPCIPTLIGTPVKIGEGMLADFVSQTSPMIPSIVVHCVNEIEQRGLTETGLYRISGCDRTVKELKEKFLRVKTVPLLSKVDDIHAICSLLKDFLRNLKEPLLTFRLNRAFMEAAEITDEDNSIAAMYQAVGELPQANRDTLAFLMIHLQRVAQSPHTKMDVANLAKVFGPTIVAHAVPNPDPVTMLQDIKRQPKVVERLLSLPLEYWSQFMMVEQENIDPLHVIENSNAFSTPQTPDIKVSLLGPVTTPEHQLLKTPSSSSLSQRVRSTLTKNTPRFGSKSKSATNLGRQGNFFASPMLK

[4] = HEp-2 cell cytotoxicity, dose response, cytotoxicity control for RSV inhibitor project, HTS (AID 2410); assay type: functional; conditions: human respiratory syncytial virus
Cytochrome P450 1A2 = molecular target: T2, Cytochrome P450 1A2 (Homo sapiens, UniProt P05177);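 note: PubChem cytochrome P450 panel assay, CYP1A2 panel member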
T2 sequence (P05177 whole entry): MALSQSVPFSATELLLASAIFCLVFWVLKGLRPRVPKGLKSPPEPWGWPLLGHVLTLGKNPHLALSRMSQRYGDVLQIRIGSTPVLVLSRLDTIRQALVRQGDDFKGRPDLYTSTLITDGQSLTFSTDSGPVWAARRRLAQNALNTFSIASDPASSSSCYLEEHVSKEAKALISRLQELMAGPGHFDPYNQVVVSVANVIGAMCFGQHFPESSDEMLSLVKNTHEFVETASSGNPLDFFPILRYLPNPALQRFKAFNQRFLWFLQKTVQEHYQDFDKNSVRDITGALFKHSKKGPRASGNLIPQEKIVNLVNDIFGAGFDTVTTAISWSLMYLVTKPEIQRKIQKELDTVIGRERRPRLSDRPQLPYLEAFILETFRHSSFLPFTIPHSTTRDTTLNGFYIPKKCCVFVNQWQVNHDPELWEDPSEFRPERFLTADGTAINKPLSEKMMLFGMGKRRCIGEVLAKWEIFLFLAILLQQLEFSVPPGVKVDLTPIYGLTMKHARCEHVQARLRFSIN

Compound: O=C(c1ccco1)N(CCCN1CCOCC1)c1nc(-c2ccc(Cl)cc2)cs1
- EC50 [1]: 1.8 µM (active)
- EC50 [2]: > 60 µM (not active)

Compound: Cc1ccc(NC(=O)CCC(=O)NNC(=O)c2cccs2)c(C)c1
- AC50 (Cytochrome P450 2C19; read-out: AC50): 28.2 µM (inconclusive)

Compound: O=C(N/N=C/c1ccc([N+](=O)[O-])o1)C1CCCC1
- EC50 [1]: 0.429 µM (active)
- EC50 [2]: > 60 µM (not active)

Compound: Oc1ccc(Nc2ncnc3ccccc23)cc1
- IC50 [3]: 15.5 µM (active)

Compound: COc1cc(CN2CCC(C(=O)N3CCN(c4ccccc4F)CC3)CC2)ccc1O
- IC50 [3]: 110 µM (active)

Compound: Cc1nc(N2CCOCC2)nc(N2CCCCC2C)c1[N+](=O)[O-] (stereo unspecified)
- CC50 [4]: 21.9 µM (active)

Compound: O=C(NCc1ccccc1Cl)c1cnccn1
- AC50 (Cytochrome P450 2C19; read-out: AC50): 20 µM (inconclusive)
- AC50 (Cytochrome P450 1A2): 28.2 µM (inconclusive)

Compound: Cc1cccc(NS(=O)(=O)c2cc(C(=O)N3CCc4ccccc4C3)ccc2Cl)c1C
- EC50 [1]: 2.18 µM (active)
- EC50 [2]: > 60 µM (not active)

Compound: O=C(Cc1ccccc1)N1CCN(Cc2ccc(F)cc2)CC1
- IC50 [3]: 130 µM (active)

Compound: COc1ccccc1/C=C/[C@@H]1C[C@H]2CN(Cc3cccc(Cl)c3)C(=O)[C@]23CCCN13
- CC50 [4]: 38.4 µM (active)

Compound: Cc1ccccc1OCCCN1CCCC1
- AC50 (Cytochrome P450 2C19; read-out: AC50): 10 µM (inconclusive)

Compound: N#C[C@@H](/N=N\c1ccccc1C(=O)O)C(N)=O
- AC50 (Cytochrome P450 2C19): inconclusive

Compound: O=C1NC(=O)/C(=C/c2cccc([N+](=O)[O-])c2)N1
- CC50 [4]: 31.2 µM (active)

Compound: COc1ccc2nc(Nc3ccccc3)sc2c1
- CC50 [4]: 33.6 µM (active)

Compound: COC(=O)[C@@]1(Cc2ccc(OC)cc2)[C@H]2c3cc(C(=O)N4CCCC4)n(Cc4ccccn4)c3C[C@H]2CN1C(=O)c1ccccc1
- AC50 (Cytochrome P450 2C19; read-out: AC50): 39.8 µM (inconclusive)

Compound: Cc1ccc(CNc2ncc(-c3ccccc3)n2C)o1
- IC50 [3]: 83.2 µM (active)

Compound: COc1cccc(CNc2ccc3c(c2)CCC3)c1
- EC50 [1]: 7.93 µM (active)
- EC50 [2]: > 60 µM (not active)

Compound: COc1ccc(CC(=O)NCc2ccccn2)cc1OC
- AC50 (Cytochrome P450 1A2): 14.1 µM (inconclusive)

Compound: CN1c2ccccc2Oc2nnc(Cl)cc21
- CC50 [4]: 43.3 µM (active)

Compound: CCCCN(C)C(=O)C1CCN(Cc2cccc(OCc3ccccc3)c2)CC1
- IC50 [3]: 172 µM (active)

Compound: O=[N+]([O-])c1nn(-c2ccc3c(c2)OCCO3)[n+]([O-])c1NCCCO
- EC50 [1]: 0.75 µM (active)
- EC50 [2]: > 60 µM (not active)

Compound: O=C1Nc2ccc(S(=O)(=O)O)cc2/C1=N/Nc1ccccc1[N+](=O)[O-]
- AC50 (Cytochrome P450 1A2): 1 µM (inconclusive)

Compound: CCCCNc1[nH]c(=S)nc2cc(OC)c(OC)cc12
- IC50 [3]: 61.8 µM (active)

Compound: Cc1cc(C)c(S(=O)(=O)c2ccccc2Cl)c(Cl)n1
- EC50 [1]: 2.32 µM (active)
- EC50 [2]: > 60 µM (not active)

Compound: CCCCc1c(O)nc2ccc(C)cc2c1C
- CC50 [4]: 26.6 µM (active)

Compound: Nc1ccc(N2CCCCC2)c(Cl)c1
- IC50 [3]: 46.4 µM (active)

Compound: NNC(N)=O [HYDRAZINECARBOXAMIDE]
- AC50 (Cytochrome P450 1A2): 39.8 µM (inconclusive)

Compound: C[C@@]12C=CC(=O)C=C1CC[C@@H]1[C@@H]2[C@H](O)C[C@]2(C)[C@@H]1CC[C@]2(O)C(=O)CO
- AC50 (Cytochrome P450 2C19): inconclusive

Compound: COc1nc(OCCNC(C)=O)nc(N(C)C)n1
- AC50 (Cytochrome P450 1A2): 39.8 µM (inconclusive)

Compound: Cc1ccc(-c2ccc(/C=N\NC(=O)C3C(=O)NCC3c3ccccc3)o2)cc1Cl (stereo unspecified)
- CC50 [4]: 13 µM (active)

Compound: CN(C)c1oc(-c2ccc(OCc3ccc(Cl)cc3)cc2)nc1C#N
- EC50 [1]: 8.31 µM (active)
- EC50 [2]: > 60 µM (not active)

Compound: O=C(O)[C@H](Cc1c[nH]c2ccccc12)N1C(=O)c2ccccc2C1=O
- AC50 (Cytochrome P450 2C19): inconclusive

Compound: C/C(=N\c1ccc(O)cc1)c1sc2ccccc2c1O
- IC50 [3]: 123 µM (active)

Compound: Nc1nc2c(s1)CCc1ccccc1-2
- IC50 [3]: 41.4 µM (active)

Compound: COC(=O)c1ccc(-c2sc3nc(N4CCOCC4)c4c(c3c2N)CCCC4)o1
- EC50 [1]: 2.63 µM (active)
- EC50 [2]: 13.2 µM (active)

Compound: Cc1ccc(Nc2c([N+](=O)[O-])nn(-c3ccc(Cl)cc3)[n+]2[O-])cc1C
- EC50 [1]: 0.747 µM (active)
- EC50 [2]: > 60 µM (not active)

Compound: Cc1cccc(OCC(=O)N2CCN(Cc3ccncc3)CC2)c1
- IC50 [3]: 82.9 µM (active)

Compound: C/C(=N\NC(=O)c1cc(-c2cccc(OC(C)C)c2)nc2ccccc12)c1cccnc1
- EC50 [1]: 0.611 µM (active)
- EC50 [2]: > 30 µM (not active)

Compound: COC(=O)C1Cc2c([nH]c3ccccc23)C2(CCN(Cc3ccccc3)CC2)N1 (stereo unspecified)
- EC50 [1]: 1.6 µM (active)
- EC50 [2]: 10.1 µM (active)

Compound: COc1ccc(C(=O)/C=C/c2ccc(F)cc2)c(OC(=O)c2ccc([N+](=O)[O-])cc2)c1
- CC50 [4]: 20.5 µM (active)

Compound: CCOc1cc(/C=N/NC(=O)c2ccc(=O)n(C)c2)ccc1O
- IC50 [3]: 59.6 µM (active)

Compound: N#Cc1c(O)nsc1Nc1ccccc1
- IC50 [3]: 79.5 µM (active)

Compound: CSc1ccccc1OCc1cc(C(=O)N(C)C2CCCc3ccccc32)no1 (stereo unspecified)
- CC50 [4]: 20.4 µM (active)

Compound: CC(C)=NNc1ncnc2[nH]cnc12
- AC50 (Cytochrome P450 1A2): 0.794 µM (inconclusive)

Compound: CCc1noc(C)c1C(=O)Nc1ccc(S(=O)(=O)N2CCC(C)CC2)cc1
- CC50 [4]: 32.9 µM (active)

Compound: Oc1ccc(/C=N/Nc2cc(N3CCOCC3)nc(N3CCOCC3)n2)cc1
- IC50 [3]: 45.3 µM (active)

Compound: O=C(O)CCC(=O)CCC(=O)c1ccccc1
- AC50 (Cytochrome P450 2C19; read-out: AC50): 39.8 µM (inconclusive)

Compound: COc1ccccc1CCNC1CCC(C(C)(C)C)CC1 (stereo unspecified)
- EC50 [1]: 1.37 µM (active)
- EC50 [2]: > 60 µM (not active)

Compound: O=c1c2c([N+](=O)[O-])cc([N+](=O)[O-])cc2[s+]([O-])n1Cc1ccccc1 (stereo unspecified)
- IC50 [3]: 46.6 µM (active)

Compound: Cc1n[nH]c(-c2ccc(OCc3cnn(-c4ccccc4)c3)cc2O)c1Oc1ccc(Cl)cc1
- EC50 [1]: 2.43 µM (active)
- EC50 [2]: > 60 µM (not active)

Compound: O=c1c(CCc2ccccc2)nc2cncnc2n1Cc1ccccc1Cl
- AC50 (Cytochrome P450 1A2): 12.6 µM (inconclusive)

Compound: Cc1nn(Cc2c(F)c(F)c(F)c(F)c2F)c(C)c1NC(=O)c1cccc(COc2ccc(Cl)cc2)c1
- AC50 (Cytochrome P450 1A2): 12.6 µM (inconclusive)

Compound: CN(C)CCCN(C(=O)c1cccs1)c1nc2cc3c(cc2s1)OCO3
- EC50 [1]: 0.163 µM (active)
- EC50 [2]: > 60 µM (inconclusive)

Compound: CCn1c(N=C(S)Nc2ccccc2)nc2ccccc21
- EC50 [1]: 0.53 µM (active)
- EC50 [2]: > 60 µM (inconclusive)

Compound: CCOC(=O)N1CCN(C(=O)c2ccc(NC(C)=O)cc2)CC1
- AC50 (Cytochrome P450 2C19; read-out: AC50): 22.4 µM (inconclusive)

Compound: Oc1ccc(N2CCN(Cc3ccc(OCCCN4CCCCC4)cc3)CC2)cc1
- EC50 [1]: 0.114 µM (active)
- EC50 [2]: > 30 µM (not active)

Compound: COc1ccc([C@H]2CN(c3ccc(OC)cc3)C(=O)[C@@H]2CC(=O)Nc2ccccc2)cc1
- IC50 [3]: 115 µM (active)

Compound: Cc1ccc2nc(-c3ccncc3)cc(C(=O)NCCc3ccc(F)cc3)c2c1
- EC50 [1]: 1.7 µM (active)
- EC50 [2]: > 60 µM (not active)
